Assay results reported in publication PMC9393241, “Design, Synthesis, and Activity Assays of Cyclin-Dependent Kinase 1 Inhibitors With Flavone Scaffolds” (Frontiers in Chemistry, 2022).

What was measured:
CDK4/cyclin D3 = biological target: T1, CDK4/cyclin D3 (Homo sapiens, UniProt P11802); assay: In vitro anti-CDK4/cyclin D3 kinase assay (Kinase-Glo luminescence); type: biochemical; conditions: for inhibition at 20 µM: test compounds at 20 μM, read-out: Inhibition rates (%) CDK4
T1 construct: purchased
Method: (§1) In vitro anti-CDK1/cyclin B1 and CDK4/cyclin D3 assays were performed as described by the manufacturer. All test compounds and controls were dissolved in dimethyl sulfoxide (DMSO) to prepare 50 μM stock solutions. The stock solutions were diluted by double-distilled water and buffer to 40, 30, 20, and 10 μM working concentrations and stored at −20°C. Buffer, ATP, CDK substrate […], and distilled water were mixed, and then 25 μl of the mixture was added to a 96-well plate. Five microliters of 20 μM test compounds were sequentially added. CDK1/cyclin B1 was diluted to 1 ng/μl, and CDK4/cyclin D3 was diluted to 10 ng/μl using a buffer. Twenty microliters of the kinase solutions were incubated with the test compounds at 30°C for 45 min for CDK1/cyclin B1 and for 60 min for CDK4/cyclin D3. Finally, 50 μl of Kinase-Glo Max reagent was added to each well. The 96-well plate was covered with aluminum foil and incubated at room temperature for 15 min. Luminescence of the test compounds was measured with a microplate reader.

CDK1/cyclin B1 = biological target: T2, CDK1/cyclin B1 (Homo sapiens, UniProt P06493); assay: In vitro anti-CDK1/cyclin B1 kinase assay (Kinase-Glo luminescence); type: biochemical; conditions: for inhibition at 20 µM: test compounds at 20 μM, read-out: Inhibition rates (%) CDK1; for Selectivity: CDK1 compared with CDK4 (CDK4 IC50 / CDK1 IC50)
T2 construct: purchased
Method: as §1

T1 sequence (P11802 whole entry): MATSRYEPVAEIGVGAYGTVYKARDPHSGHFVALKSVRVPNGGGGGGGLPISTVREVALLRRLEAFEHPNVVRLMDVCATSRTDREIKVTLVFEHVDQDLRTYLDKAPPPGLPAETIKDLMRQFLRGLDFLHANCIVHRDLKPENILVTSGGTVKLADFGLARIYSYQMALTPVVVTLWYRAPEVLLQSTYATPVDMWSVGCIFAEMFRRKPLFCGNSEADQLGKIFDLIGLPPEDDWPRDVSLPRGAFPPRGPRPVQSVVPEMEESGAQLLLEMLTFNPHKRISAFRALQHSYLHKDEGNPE
T1 sequence (P30281 whole entry partner): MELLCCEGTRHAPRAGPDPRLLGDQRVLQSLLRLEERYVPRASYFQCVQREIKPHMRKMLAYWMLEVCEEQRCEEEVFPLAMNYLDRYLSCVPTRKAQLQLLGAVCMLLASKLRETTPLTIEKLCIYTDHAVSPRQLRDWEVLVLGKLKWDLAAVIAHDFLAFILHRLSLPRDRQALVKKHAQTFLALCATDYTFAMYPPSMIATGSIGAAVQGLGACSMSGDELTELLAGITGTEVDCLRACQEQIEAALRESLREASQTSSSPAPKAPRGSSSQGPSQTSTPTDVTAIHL
T2 sequence (P06493 whole entry): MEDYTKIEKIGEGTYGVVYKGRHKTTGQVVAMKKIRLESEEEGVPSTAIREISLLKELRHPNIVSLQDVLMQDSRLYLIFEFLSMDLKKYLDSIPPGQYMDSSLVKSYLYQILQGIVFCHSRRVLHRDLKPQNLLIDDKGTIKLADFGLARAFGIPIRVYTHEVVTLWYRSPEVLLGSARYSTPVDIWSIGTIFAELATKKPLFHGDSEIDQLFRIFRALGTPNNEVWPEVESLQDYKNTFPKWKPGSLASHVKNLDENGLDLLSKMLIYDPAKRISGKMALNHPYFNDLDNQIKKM
T2 sequence (P14635 whole entry partner): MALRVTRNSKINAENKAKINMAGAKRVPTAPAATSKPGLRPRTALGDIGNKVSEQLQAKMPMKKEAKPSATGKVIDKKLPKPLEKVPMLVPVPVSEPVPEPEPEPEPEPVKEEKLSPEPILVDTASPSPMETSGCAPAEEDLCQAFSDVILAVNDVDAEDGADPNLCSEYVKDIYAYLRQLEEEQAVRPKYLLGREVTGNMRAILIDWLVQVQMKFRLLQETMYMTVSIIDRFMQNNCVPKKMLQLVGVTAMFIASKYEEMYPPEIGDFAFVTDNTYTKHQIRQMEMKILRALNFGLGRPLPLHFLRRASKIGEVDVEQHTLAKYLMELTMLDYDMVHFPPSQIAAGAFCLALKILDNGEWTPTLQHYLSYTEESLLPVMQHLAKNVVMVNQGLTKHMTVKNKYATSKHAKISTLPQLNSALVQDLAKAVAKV

inhibition at 20 µM (CDK4/cyclin D3)	inhibition at 20 µM (CDK1/cyclin B1)	melting point	IC50 (CDK4/cyclin D3)	IC50 (CDK1/cyclin B1)	Selectivity (CDK1/cyclin B1)	Compound
6.71 ± 0.07%	25.48 ± 0.11%	–	–	–	–	O=c1cc(-c2ccccc2)oc2c(CN3CCOCC3)c(O)c(O)c(O)c12 [Compound 1a]
0.09 ± 0.03%	31.71 ± 0.08%	–	–	–	–	O=c1cc(-c2ccccc2)oc2c(CN3CCSCC3)c(O)c(O)c(O)c12 [Compound 1b]
2.47 ± 0.08%	31.11 ± 0.1%	–	–	–	–	CCCN(CCC)Cc1c(O)c(O)c(O)c2c(=O)cc(-c3ccccc3)oc12 [Compound 1d]
10.18 ± 0.08%	27.19 ± 0.07%	202.3 to 203.6 °C	–	–	–	O=c1cc(-c2ccccc2)oc2c(CN3CCSCC3)c3c(c(O)c12)OCCCCO3 [Compound 2b, 12-Hydroxy-9-phenyl-7-(thiomorpholinomethyl)-2,3,4,5-tetrahydro-[1,4]dioxocino[2,3-g]chromen-11-one]
10.96 ± 0.09%	29.4 ± 0.09%	208.5 to 210.6 °C	–	–	–	CN(C)Cc1c2c(c(O)c3c(=O)cc(-c4ccccc4)oc13)OCCCCO2 [Compound 2c, 7-((Dimethylamino)methyl)-12-hydroxy-9-phenyl-2,3,4,5-tetrahydro-[1,4]dioxocino[2,3-g]chromen-11-one]
2.73 ± 0.06%	38.11 ± 0.09%	218.3 to 219.8 °C	543.8 ± 4.83 µM	42.2 ± 1.62 µM	12.88	O=c1cc(-c2ccccc2)oc2c(CN3CCOCC3)c(OCc3ccccc3)c(O)c(O)c12 [Compound 3a, 7-(Benzyloxy)-5,6-dihydroxy-8-(morpholinomethyl)-2-phenyl-4H-chromen-4-one]
–	31.72 ± 0.1%	195.2 to 196.3 °C	–	–	–	O=c1cc(-c2ccccc2)oc2cc(O)c(CN3CCCC3)c(O)c12 [Compound 4a, 5,7-Dihydroxy-2-phenyl-6-(pyrrolidin-1-ylmethyl)-4H-chromen-4-one]
–	28.14 ± 0.12%	179.5 to 180.1 °C	–	–	–	CN1CCN(Cc2c(O)cc3oc(-c4ccccc4)cc(=O)c3c2O)CC1 [Compound 4b, 5,7-Dihydroxy-6-((4-methylpiperazin-1-yl)methyl)-2-phenyl-4H-chromen-4-one]
7.22 ± 0.08%	29 ± 0.12%	194.9 to 196.6 °C	–	–	–	O=c1cc(-c2ccccc2)oc2c(CN3CCCC3)c(O)c(CN3CCCC3)c(O)c12 [Compound 5a, 5,7-Dihydroxy-2-phenyl-6,8-bis(pyrrolidin-1-ylmethyl)-4H-chromen-4-one]
–	28.66 ± 0.11%	172.7 to 174.3 °C	–	–	–	O=c1cc(-c2ccccc2)oc2c(CN3CC=CC3)c(O)c(CN3CC=CC3)c(O)c12 [Compound 5b, 6,8-Bis((2H-pyrrol-1(5H)-yl)methyl)-5,7-dihydroxy-2-phenyl-4H-chromen-4-one]
–	30.39 ± 0.09%	211 to 212.4 °C	–	–	–	O=c1cc(-c2ccccc2)oc2c(CN3CCSCC3)c(O)c(CN3CCSCC3)c(O)c12 [Compound 5d, 5,7-Dihydroxy-2-phenyl-6,8-bis(thiomorpholinomethyl)-4H-chromen-4-one]
–	26.75 ± 0.1%	–	–	–	–	CN1CCN(Cc2c(O)c(CN3CCN(C)CC3)c3oc(-c4ccccc4)cc(=O)c3c2O)CC1 [Compound 5e, 5,7-Dihydroxy-6,8-bis((4-methylpiperazin-1-yl)methyl)-2-phenyl-4H-chromen-4-one]
6.3 ± 0.07%	35.95 ± 0.09%	192.9 to 193 °C	229 ± 4.55 µM	51.4 ± 1.68 µM	4.45	O=c1cc(-c2ccccc2)oc2c(CN3CCCC3)c(O)cc(O)c12 [Compound 6a, 5,7-Dihydroxy-2-phenyl-8-(pyrrolidin-1-ylmethyl)-4H-chromen-4-one]
9.36 ± 0.09%	34.47 ± 0.12%	217.6 to 219.5 °C	–	–	–	O=c1cc(-c2ccccc2)oc2c(CN3CCOCC3)c(O)cc(O)c12 [Compound 6b, 5,7-Dihydroxy-8-(morpholinomethyl)-2-phenyl-4H-chromen-4-one]
9.87 ± 0.09%	34.19 ± 0.1%	218.3 to 219.5 °C	–	–	–	O=c1cc(-c2ccccc2)oc2c(CN3CCSCC3)c(O)cc(O)c12 [Compound 6c, 5,7-Dihydroxy-2-phenyl-8-(thiomorpholinomethyl)-4H-chromen-4-one]
7.46 ± 0.06%	31.24 ± 0.08%	241.9 to 242.3 °C	–	–	–	CN(C)Cc1c(O)cc(O)c2c(=O)cc(-c3ccccc3)oc12 [Compound 6d, 8-((Dimethylamino)methyl)-5,7-dihydroxy-2-phenyl-4H-chromen-4-one]
–	39.51 ± 0.06%	–	130 ± 2.84 µM	55 ± 1.45 µM	2.37	O=c1cc(-c2ccccc2)oc2cc(OCc3ccccc3)cc(O)c12 [Compound 7a, 7-(Benzyloxy)-5-hydroxy-2-phenyl-4H-chromen-4-one]
1.76 ± 0.05%	21.27 ± 0.09%	–	–	–	–	COc1cc(O)c2c(=O)cc(-c3ccccc3)oc2c1 [Compound 7b, 5-Hydroxy-7-methoxy-2-phenyl-4H-chromen-4-one]
–	22.74 ± 0.11%	169.3 to 170.1 °C	–	–	–	O=c1cc(-c2ccccc2)oc2cc(OCCBr)cc(O)c12 [Compound 7c, 7-(2-Bromoethoxy)-5-hydroxy-2-phenyl-4H-chromen-4-one]
–	31.04 ± 0.1%	187 to 188.6 °C	–	–	–	COc1cc2oc(-c3ccccc3)cc(=O)c2c(O)c1CN1CCOCC1 [Compound 8a, 5-Hydroxy-7-methoxy-6-(morpholinomethyl)-2-phenyl-4H-chromen-4-one]
–	20.47 ± 0.08%	210.3 to 212 °C	–	–	–	COc1cc2oc(-c3ccccc3)cc(=O)c2c(O)c1CN1CCSCC1 [Compound 8b, 5-Hydroxy-7-methoxy-2-phenyl-6-(thiomorpholinomethyl)-4H-chromen-4-one]
5.43 ± 0.06%	26.36 ± 0.09%	172.3 to 173.4 °C	–	–	–	COc1ccc(-c2cc(=O)c3c(O)c(CN4CCN(C)CC4)c(O)cc3o2)cc1 [Compound 9a, 5,7-Dihydroxy-2-(4-methoxyphenyl)-6-((4-methylpiperazin-1-yl)methyl)-4H-chromen-4-one]
8.55 ± 0.09%	30.69 ± 0.1%	180.6 to 181.3 °C	–	–	–	CCCN(CCC)Cc1c(O)cc2oc(-c3ccc(OC)cc3)cc(=O)c2c1O [Compound 9b, 6-((Dipropylamino)methyl)-5,7-dihydroxy-2-(4-methoxyphenyl)-4H-chromen-4-one]
4.68 ± 0.07%	24.07 ± 0.1%	207.1 to 207.3 °C	–	–	–	COc1ccc(-c2cc(=O)c3c(O)c(CN4CCCC4)c(O)c(CN4CCCC4)c3o2)cc1 [Compound 10a, 5,7-Dihydroxy-2-(4-methoxyphenyl)-6,8-bis(pyrrolidin-1-ylmethyl)-4H-chromen-4-one]
–	29.54 ± 0.11%	214.2 to 215.5 °C	–	–	–	COc1ccc(-c2cc(=O)c3c(O)c(CN4CCSCC4)c(O)c(CN4CCSCC4)c3o2)cc1 [Compound 10b, 5,7-Dihydroxy-2-(4-methoxyphenyl)-6,8-bis(thiomorpholinomethyl)-4H-chromen-4-one]
8.57 ± 0.09%	27.7 ± 0.12%	161.8 to 161.9 °C	–	–	–	COc1ccc(-c2cc(=O)c3c(O)c(CN4CCN(C)CC4)c(O)c(CN4CCN(C)CC4)c3o2)cc1 [Compound 10c, 5,7-Dihydroxy-2-(4-methoxyphenyl)-6,8-bis((4-methylpiperazin-1-yl)methyl)-4H-chromen-4-one]
–	26.12 ± 0.1%	211 to 213.4 °C	–	–	–	COc1ccc(-c2cc(=O)c3c(O)cc(O)c(CN4CCSCC4)c3o2)cc1 [Compound 11a, 5,7-Bihydroxy-2-(4-methoxyphenyl)-8-(thiomorpholinomethyl)-4H-chromen-4-one]
7.93 ± 0.08%	32.4 ± 0.11%	–	–	–	–	COc1ccc(-c2cc(=O)c3c(O)cc(OC)cc3o2)cc1 [Compound 12b, 5-Hydroxy-7-methoxy-2-(4-methoxyphenyl)-4H-chromen-4-one]
10.44 ± 0.07%	34.64 ± 0.11%	–	206 ± 3.61 µM	31.9 ± 1.08 µM	6.45	COc1ccc(-c2cc(=O)c3c(O)cc(O)cc3o2)cc1 [acacetin, reference compound]
–	32.77 ± 0.09%	–	225 ± 3.46 µM	36.6 ± 1.23 µM	6.13	O=c1cc(-c2ccccc2)oc2cc(O)cc(O)c12 [chrysin, reference compound]

Compound	inhibition at 20 µM (CDK4/cyclin D3)	inhibition at 20 µM (CDK1/cyclin B1)	melting point	IC50 (CDK4/cyclin D3)	IC50 (CDK1/cyclin B1)	Selectivity (CDK1/cyclin B1)
CN(C)Cc1c(O)c(O)c(O)c2c(=O)cc(-c3ccccc3)oc12 [Compound 1c]	–	29.28 ± 0.11%	–	–	–	–
CCCN(CCC)Cc1c(OCCCCBr)c(O)c(O)c2c(=O)cc(-c3ccccc3)oc12 [Compound 3b, 7-(4-Bromobutoxy)-8-((dipropylamino)methyl)-5,6-dihydroxy-2-phenyl-4H-chromen-4-one]	6.01 ± 0.07%	25.33 ± 0.11%	216.2 to 221.8 °C	–	–	–
O=c1cc(-c2ccccc2)oc2cc(OCCCCBr)cc(O)c12 [Compound 7d, 7-(4-Bromobutoxy)-5-hydroxy-2-phenyl-4H-chromen-4-one]	1.83 ± 0.06%	19.74 ± 0.11%	162.6 to 163.6 °C	–	–	–
O=c1cc(-c2ccccc2)oc2cc(O)c(O)c(O)c12 [baicalein, reference compound]	–	18.85 ± 0.09%	–	354 ± 5.67 µM	62.7 ± 1.52 µM	5.65
